US20250145589A1, “PYRIDINE DERIVATIVE AND USE THEREOF” (SICHUAN HUIYU PHARMACEUTICAL CO., LTD., priority 2021, published 2025)
Like-named read-outs stand apart in the source and are kept apart here.

Experiments:
[1] = tested on: NCI-H358 cells (KRAS G12C mutant); assay: NCI-H358 cell proliferation inhibition (CellTiter-Glo); format: cell-based; details: Homo sapiens, NCI-H358, 72 h; H358 cells (G12C mutation), 3 days, Table 6; read-out: NCI-H358 (IC50)
[2] = molecular target: PI3Kα (Homo sapiens (Human), UniProt P42336); assay: Inhibition of PI3Kα efficacy assay (ADP-Glo kinase assay); format: biochemical; details: read-out: PI3Kα inhibitory activity (IC50)
How it was run: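 ADP-Glo luminescent detection of ADP from PI3Kα acting on PI substrate with ATP, 60 min at RT; compounds in 8-point five-fold serial dilution from 2 mM DMSO stock. IC50 from four-parameter variable-slope fit.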

[3] = tested on: MIA PaCa-2 cells (KRAS G12C mutant); assay: MIA PaCa-2 cell anti-proliferation (CellTiter-Glo); format: cell-based; details: Homo sapiens
How it was run: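 Viable-cell luminescence (CellTiter-Glo, ≥30 min at 25 °C) measured after a 3-day, 37 °C exposure to compounds at 9 points, 4-fold spaced, in DMEM containing 10% FBS plus 2.5% horse serum. IC50 derived versus no-inhibitor wells.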

[4] = tested on: MIA PaCa-2-AMGR drug-resistant cell line; assay: MIA PaCa-2-AMGR drug-resistant cell proliferation inhibitory activity test; format: cell-based; details: for IC50: 72 h, MIA PaCa-2-AMGR drug-resistant cells, 3 days incubation, CellTiter-Glo
Protocol: Test Example 7: Generation of MIA PaCa-2-AMGR drug-resistant cell line
(§1) MIA PaCa-2 cells were seeded and cultured at 50 to 70% confluence in six-well plate with DMEM (10% FBS+2.5% horse serum) medium at 37° C. with 5% CO2. AMG510 was added for induction at three starting concentrations of 1 nM, 10 nM and 50 nM, and the medium containing the same concentration of AMG510 was replaced every 3 days. Cells were passaged once they reached confluence. After every two passages at a given concentration of drug, the concentration was increased in a 3-fold increment until final concentrations of 1 μM for AMG510 was achieved.
(§2) MIA PaCa-2-AMGR cells in logarithmic growth phase were collected and seeded into a clear-bottom 96-well plate at a density of 4×10^3 cells per well in 80 μL of medium, and then incubated overnight at 37° C. with 5% CO2. The compounds were serially diluted 5-fold in DMSO to obtain 8 concentrations, and then further diluted with DMEM (10% FBS+2.5% horse serum) cell culture medium to obtain the working solutions (5×), 20 μL of each working solution was added to the cell culture supernatant in each well, and the plate was further incubated for 3 days at 37° C. with 5% CO2. The plate was then equilibrated with CellTiter-Glo® reagent at room temperature (25° C.) for 10-30 minutes. After aspirating 50 μL of the medium, 50 μL of CellTiter-Glo® reagent was added. The cells were thoroughly mixed with the CellTiter-Glo® reagent using a microplate shaker for 2 minutes, and then incubated at room temperature for 10 minutes. The 96-well plate was placed in a multi-mode microplate reader to record the luminescence values (RLU).
(§3) The inhibitory rate was calculated using the following formula: […]
Data were analyzed using GraphPad Prism for IC50 values (Note: The negative control refers to the group without inhibitor) The data were presented m Table 9

[5] = tested on: NCI-H358-AMGR drug-resistant cell line; assay: NCI-H358-AMGR drug-resistant cell proliferation inhibitory activity test; format: cell-based; details: for IC50: 72 h, NCI-H358-AMGR drug-resistant cells, 3 days incubation, CellTiter-Glo
Protocol: Test Example 6t Generation of NCI-H358-AMGR Drug-Resistant Cell Line
as §1, with “NCI-H358 cells” for “MIA PaCa-2 cells”, “with RPMI-640” for “with DMEM”, “(10% FBS)” for “(10% FBS+2.5% horse serum)”, “with 5%4” for “with 5%”, “After every,” for “After every”, “a 3-old” for “a 3-fold”
as §2, with “NCI-H358-AMGR cells” for “MIA PaCa-2-AMGR cells”, “with RPMI-640)” for “with DMEM”, “(10% FBS)” for “(10% FBS+2.5% horse serum)”, “of CellTiter-Glo®,” for “of CellTiter-Glo®”, “the CellTiter-Glo®,” for “the CellTiter-Glo®”, “The […]” for “The 96-well”
as §3
Data were analyzed using GraphPad Prism for IC50 values (Note: The negative control refers to the group without inhibitor).

[6] = molecular target: PI3Kδ (Homo sapiens (Human), UniProt O00329); assay: Inhibition of PI3Kδ efficacy assay (ADP-Glo kinase assay); format: biochemical; details: read-out: PI3Kδ inhibitory activity (IC50)
How it was run: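 Luminescent ADP-Glo readout of PI3Kδ: after a 60 min RT reaction with PI/ATP substrate, ATP depletion (40 min) and ADP detection (40 min) steps followed. Compounds tested as eight five-fold serial dilutions; inhibition rates fitted to log(inhibitor) vs. response, variable slope, for IC50.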

[7] = 72 h, MIA Paca-2 cells, 3 days, Table 7, read-out: MIA PaCa-2 (IC50)

Sequence of PI3Kα (P42336 whole entry): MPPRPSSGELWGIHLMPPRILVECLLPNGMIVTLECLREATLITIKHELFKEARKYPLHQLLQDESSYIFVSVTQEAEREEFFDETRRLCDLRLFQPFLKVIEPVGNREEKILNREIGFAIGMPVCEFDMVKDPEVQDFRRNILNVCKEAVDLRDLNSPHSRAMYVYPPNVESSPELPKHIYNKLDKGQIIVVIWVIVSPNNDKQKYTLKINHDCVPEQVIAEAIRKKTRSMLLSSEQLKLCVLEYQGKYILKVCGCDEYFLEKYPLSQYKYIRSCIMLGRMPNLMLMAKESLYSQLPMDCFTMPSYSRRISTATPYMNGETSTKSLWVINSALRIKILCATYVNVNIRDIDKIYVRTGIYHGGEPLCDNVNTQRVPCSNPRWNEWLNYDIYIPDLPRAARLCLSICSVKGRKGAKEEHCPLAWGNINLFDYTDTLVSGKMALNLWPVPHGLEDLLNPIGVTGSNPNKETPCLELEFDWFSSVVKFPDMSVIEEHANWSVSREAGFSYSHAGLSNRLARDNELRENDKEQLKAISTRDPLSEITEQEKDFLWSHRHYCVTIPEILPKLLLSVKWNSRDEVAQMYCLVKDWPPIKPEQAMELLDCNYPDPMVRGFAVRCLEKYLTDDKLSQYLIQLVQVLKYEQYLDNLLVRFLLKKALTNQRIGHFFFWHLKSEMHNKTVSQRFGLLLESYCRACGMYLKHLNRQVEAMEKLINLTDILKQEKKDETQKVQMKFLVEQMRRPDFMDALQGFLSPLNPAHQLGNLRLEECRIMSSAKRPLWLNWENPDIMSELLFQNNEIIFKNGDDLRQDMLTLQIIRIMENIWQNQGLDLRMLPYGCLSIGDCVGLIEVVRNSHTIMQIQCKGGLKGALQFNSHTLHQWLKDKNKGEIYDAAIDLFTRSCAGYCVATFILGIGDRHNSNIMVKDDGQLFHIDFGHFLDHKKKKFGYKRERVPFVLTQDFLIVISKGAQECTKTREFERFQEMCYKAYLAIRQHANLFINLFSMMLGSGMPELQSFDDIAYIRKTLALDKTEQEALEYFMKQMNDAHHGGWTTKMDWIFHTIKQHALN
Sequence of PI3Kα (P27986 whole entry partner): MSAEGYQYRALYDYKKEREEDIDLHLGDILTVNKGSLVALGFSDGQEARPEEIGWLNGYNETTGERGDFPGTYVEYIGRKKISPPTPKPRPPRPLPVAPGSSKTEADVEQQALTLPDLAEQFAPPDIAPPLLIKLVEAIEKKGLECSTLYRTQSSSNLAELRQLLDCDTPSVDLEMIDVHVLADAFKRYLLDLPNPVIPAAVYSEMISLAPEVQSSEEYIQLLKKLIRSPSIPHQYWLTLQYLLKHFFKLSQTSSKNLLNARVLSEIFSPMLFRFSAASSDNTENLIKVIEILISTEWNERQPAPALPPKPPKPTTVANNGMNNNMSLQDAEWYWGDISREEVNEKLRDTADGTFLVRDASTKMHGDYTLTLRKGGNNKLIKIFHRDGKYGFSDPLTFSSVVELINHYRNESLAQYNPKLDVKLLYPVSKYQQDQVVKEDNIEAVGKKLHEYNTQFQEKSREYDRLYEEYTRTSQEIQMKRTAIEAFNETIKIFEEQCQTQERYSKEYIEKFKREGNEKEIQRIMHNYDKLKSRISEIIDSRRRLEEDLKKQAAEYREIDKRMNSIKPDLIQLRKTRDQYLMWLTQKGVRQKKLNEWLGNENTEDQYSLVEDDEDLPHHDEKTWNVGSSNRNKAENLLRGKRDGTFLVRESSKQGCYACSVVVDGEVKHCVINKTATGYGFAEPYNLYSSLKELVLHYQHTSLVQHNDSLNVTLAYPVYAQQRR
Sequence of PI3Kδ (O00329 whole entry): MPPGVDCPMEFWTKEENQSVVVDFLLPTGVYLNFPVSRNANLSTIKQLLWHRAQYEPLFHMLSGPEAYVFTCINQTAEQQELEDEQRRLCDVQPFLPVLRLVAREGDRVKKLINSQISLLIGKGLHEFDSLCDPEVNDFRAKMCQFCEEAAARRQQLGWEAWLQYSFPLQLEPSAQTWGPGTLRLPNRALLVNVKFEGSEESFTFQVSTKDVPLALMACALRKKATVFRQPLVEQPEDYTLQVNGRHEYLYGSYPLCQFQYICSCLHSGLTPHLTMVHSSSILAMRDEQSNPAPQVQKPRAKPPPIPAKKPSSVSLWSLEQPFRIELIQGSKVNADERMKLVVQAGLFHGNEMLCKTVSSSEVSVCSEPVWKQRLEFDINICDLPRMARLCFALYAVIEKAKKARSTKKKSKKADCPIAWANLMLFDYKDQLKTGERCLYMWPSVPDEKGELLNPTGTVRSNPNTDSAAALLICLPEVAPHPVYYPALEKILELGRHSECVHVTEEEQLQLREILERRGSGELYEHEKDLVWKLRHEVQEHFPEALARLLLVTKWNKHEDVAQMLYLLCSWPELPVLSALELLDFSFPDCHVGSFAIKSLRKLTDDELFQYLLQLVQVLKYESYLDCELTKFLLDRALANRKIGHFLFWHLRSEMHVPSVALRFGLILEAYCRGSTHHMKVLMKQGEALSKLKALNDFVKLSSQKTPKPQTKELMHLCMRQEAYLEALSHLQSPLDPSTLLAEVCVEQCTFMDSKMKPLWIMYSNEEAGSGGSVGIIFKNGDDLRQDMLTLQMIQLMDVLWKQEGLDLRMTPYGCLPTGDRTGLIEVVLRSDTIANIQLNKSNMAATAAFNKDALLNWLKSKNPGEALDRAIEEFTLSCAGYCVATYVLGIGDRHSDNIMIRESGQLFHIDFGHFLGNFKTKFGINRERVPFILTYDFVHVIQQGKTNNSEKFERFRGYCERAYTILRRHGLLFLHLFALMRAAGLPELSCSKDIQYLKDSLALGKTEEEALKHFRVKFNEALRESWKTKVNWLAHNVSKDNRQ
Sequence of PI3Kδ (P27986 whole entry partner): as the sequence (P27986 whole entry partner) above

Structure (SMILES) | IC50 [1] | IC50 ([2]; Table 4) | IC50 [3, 7] | IC50 [4] | IC50 [5] | IC50 ([2]; Table 1) | IC50 ([2]; Table 2) | IC50 ([6]; Table 2) | inhibition at 10 µM ([4]; 10 μM, MIA PaCa-2-AMGR, read-out: inhibition rate at the maximum dose) | inhibition at 10 µM ([5]; 10 μM, NCI-H358-AMGR, read-out: inhibition rate at the maximum dose) | IC50 ([3]; MIA PaCa-2, 72 h, read-out: MIA PaCa-2 (IC50, nM)) | IC50 ([6]; Table 4)
C=CC(=O)N1CCN(c2nc(=O)n(-c3c(C)ccnc3C(C)C)c3nc(-c4c(O)cccc4F)c(F)cc23)[C@@H](C)C1 [AMG-510, reference compound] | – | – | – | > 10000 nM | > 10000 nM | – | – | – | < 50% | ≤ 50% | – | –
COc1ncc(-c2ccc3ncnc(N4CCN(C(=O)/C=C/C(C)=O)CC4)c3c2)cc1NS(=O)(=O)c1c(C)cccc1F [Example 186, (E)-2-fluoro-N-(2-methoxy-5-(4-(4-(4-oxopent-2-enoyl)piperazin-1-yl)quinazolin-6-yl)pyridin-3-yl)-6-methyl-benzene-sulfonamide] | 25.4 nM | 2.4 nM | 52.9 nM | 31.3 nM | 43.9 nM | – | – | – | – | – | – | –
C=C(C(=O)N1CCN(c2ncnc3ccc(-c4cnc(OC)c(NS(=O)(=O)c5ccc(F)cc5F)c4)cc23)CC1)C(C)O (stereo not shown) [Example 167, 2,4-difluoro-N-(5-(4-(4-(3-hydroxy-2-methylenebutanoyl)piperazin-1-yl)quinazolin-6-yl)-2-methoxypyridin-3-yl)benzenesulfonamide] | 36.5 nM | 2.2 nM | – | – | 73 nM | – | – | – | – | – | 112 nM | 11.8 nM
COc1ccc(S(=O)(=O)Nc2cc(-c3ccc4ncnc(N5CCN(C(=O)/C=C/C(C)=O)CC5)c4c3)cnc2OC)c(F)c1 [Example 185, (E)-2-fluoro-4-methoxy-N-(2-methoxy-5-(4-(4-(4-oxopent-2-enoyl)piperazin-1-yl)quinazolin-6-yl)pyridin-3-yl)benzene-sulfonamide] | 69.4 nM | 1.6 nM | 104 nM | 45.7 nM | 131 nM | – | – | – | – | – | – | –
COc1ncc(-c2ccc3ncnc(N4CCN(C(=O)/C=C/C(C)=O)CC4)c3n2)cc1NS(=O)(=O)c1c(C)cccc1F [Example 229, (E)-2-fluoro-N-(2-methoxy-5-(4-(4-(4-oxopent-2-enoyl)piperazin-1-yl)pyrido[3,2-d]pyrimidin-6-yl)pyridin-3-yl)-6-methyl-benzene-sulfonamide] | 24 nM | 3 nM | 40.8 nM | 31.3 nM | 30 nM | – | – | – | – | – | – | –
CC(=O)/C=C/C(=O)N1CCN(c2ncnc3ccc(-c4cnc(OC(F)(F)F)c(NS(=O)(=O)c5ccc(F)cc5F)c4)nc23)CC1 [Example 226, (E)-2,4-difluoro-N-(5-(4-(4-(4-oxopent-2-enoyl)piperazin-1-yl)pyrido[3,2-d]pyrimidin-6-yl)-2-(trifluoro-methoxy)pyridin-3-yl)benzene-sulfonamide] | 248 nM | 1.4 nM | 357 nM | 424 nM | 359 nM | – | – | – | – | – | – | –
COc1ncc(-c2ccc3ncnc(N4[C@H](C)CN(C(=O)/C=C/C(C)=O)C[C@@H]4C)c3c2)cc1NS(=O)(=O)c1ccccc1F [Example 193, N-(5-(4-((2R,6S)-2,6-dimethyl-4-((E)-4-oxopent-2-enoyl)piperazin-1-yl)quinazolin-6-yl)-2-methoxypyridin-3-yl)-2-fluorobenzenesulfonamide] | 52.7 nM | 2.8 nM | 115 nM | 66.2 nM | 21.6 nM | – | – | – | – | – | – | –
COc1ncc(-c2ccc3ncnc(N4CCC5(CN(C(=O)/C=C/C(C)=O)C5)C4)c3c2)cc1NS(=O)(=O)c1ccc(F)cc1F [Example 13, (E)-2,4-difluoro-N-(2-methoxy-5-(4-(2-(4-oxopent-2-enoyl)-2,6-diazaspiro[3.4]octan-4-yl)quinazolin-6-yl)pyridin-3-yl)benzenesulfonamide] | 73.3 nM | – | 144 nM | 433 nM | – | – | – | – | – | – | – | –
COc1ncc(-c2ccc3ncnc(N4CCN(C(=O)/C=C/C(C)=O)CC4)c3n2)cc1NS(=O)(=O)c1cnccc1C [Example 223, (E)-N-(2-methoxy-5-(4-(4-(4-oxopent-2-enoyl)piperazin-1-yl)pyrido[3,2-d]pyrimidin-6-yl)pyridin-3-yl)-4-methyl-pyridine-3-sulfonamide] | 135 nM | – | 94.4 nM | 63.1 nM | 85.2 nM | – | – | – | – | – | – | –

The remaining molecules from weak to strong by IC50 [4], led by results:

IC50 [1] | IC50 ([2]; Table 4) | IC50 [3, 7] | IC50 [4] | IC50 [5] | IC50 ([2]; Table 1) | IC50 ([2]; Table 2) | IC50 ([6]; Table 2) | Structure (SMILES) | inhibition at 10 µM ([4]; 10 μM, MIA PaCa-2-AMGR, read-out: inhibition rate at the maximum dose) | inhibition at 10 µM ([5]; 10 μM, NCI-H358-AMGR, read-out: inhibition rate at the maximum dose) | IC50 ([3]; MIA PaCa-2, 72 h, read-out: MIA PaCa-2 (IC50, nM)) | IC50 ([6]; Table 4)
91.2 nM | – | 73.6 nM | 250 nM | 81.6 nM | – | – | – | COc1ncc(-c2ccc3ncnc(N4CCN(C(=O)/C=C/C(C)=O)C[C@@H]4C)c3c2)cc1NS(=O)(=O)c1ccc(F)cc1F [Example 8, (S,E)-2,4-difluoro-N-(2-methoxy-5-(4-(2-methyl-4-(4-oxopent-2-enoyl)piperazin-1-yl)quinazolin-6-yl)pyridin-3-yl)benzenesulfonamide] | – | – | – | –
140 nM | 4.6 nM | 173 nM | 224 nM | 373 nM | – | – | – | COc1ncc(-c2ccc3ncnc(N4CCN(C(=O)/C=C/C(C)=O)CC4)c3c2)cc1NS(=O)(=O)c1ccc(F)c2ccccc12 [Example 187, (E)-4-fluoro-N-(2-methoxy-5-(4-(4-(4-oxopent-2-enoyl)piperazin-1-yl)quinazolin-6-yl)pyridin-3-yl)naphthalene-1-sulfonamide] | – | – | – | –
30.6 nM | – | – | 141 nM | – | – | 3.3 nM | 13.1 nM | C=C(F)C(=O)N1CCN(c2ncnc3ccc(-c4cnc(OC)c(NS(=O)(=O)c5ccc(F)cc5F)c4)cc23)CC1 [Example 59, 2,4-difluoro-N-(5-(4-(4-(2-fluoroacryloyl)piperazin-1-yl)quinazolin-6-yl)-2-methoxypyridin-3-yl)benzenesulfonamide] | – | – | – | –
21 nM | – | 98 nM | 36 nM | 27 nM | 0.26 nM | – | – | C=CC(=O)N1CCN(c2ncnc3ccc(-c4cnc(OC)c(NS(=O)(=O)c5ccc(F)cc5F)c4)cc23)CC1 [Example 1, N-(5-(4-(4-acryloylpiperazin-1-yl)quinazolin-6-yl)-2-methoxypyridin-3-yl)-2,4-difluorobenzenesulfonamide] | – | – | – | –
19.5 nM | 1.7 nM | 34.6 nM | 28.8 nM | 44.7 nM | – | – | – | COc1ncc(-c2ccc3ncnc(C4=CCN(C(=O)/C=C/C(C)=O)CC4)c3n2)cc1NS(=O)(=O)c1c(F)cc(F)cc1F [Example 236, (E)-2,4,6-trifluoro-N-(2-methoxy-5-(4-(1-(4-oxopent-2-enoyl)-1,2,3,6-tetrahydropyridin-4-yl)pyrido[3,2-d]pyrimidin-6-yl)pyridin-3-yl)benzenesulfonamide] | – | – | – | –
